Measurements: patent publication US20230074545A1, “TREATMENT OF CANCER WITH CDK12/13 INHIBITORS” (Kinnate Biopharma Inc., priority 2019, published 2023)

How the values were obtained:
Assay in all cases: Radiometric kinase panel
Assay type in all cases: biochemical
AKT3 = biological target: T1, AKT3 (Homo sapiens, UniProt Q9Y243)
T1 construct: purchased ProQinase GmbH (Reaction Biology)
Description: (§1) The compounds 1-5 (see Table 1) were assayed for kinase activity at ProQinase (ProQinase GmbH, Reaction Biology; Freiburg, Germany) using their commercially available radiometric kinase assay services. Briefly, the compounds were provided as solids and were dissolved to 1×10^−03 M/100% DMSO stock solutions on the day of assay. All protein kinases were provided by ProQinase and were expressed in Sf9 insect cells or in E. coli as recombinant GST-fusion proteins or His-tagged proteins, either as full-length or enzymatically active fragments. All kinases were produced from human cDNAs and purified by either GSH-affinity chromatography or immobilized metal. The purity of the protein kinases was examined by SDS-PAGE/Coomassie staining, the identity was checked by mass spectroscopy. A radiometric protein kinase assay (^33PanQinase® Activity Assay) was used for measuring the kinase activity of the protein kinase. All kinase assays were performed in 96-well FlashPlates™ from PerkinElmer (Boston, Mass., USA) in a 50 microliter reaction volume. The reaction cocktail was pipetted in four steps in the following order: 1) 25 microliter of assay buffer (standard buffer/[gamma-^33P]-ATP); 2) 10 microliter of ATP solution (in H2O); 3) 5 microliter of test compound (in 10% DMSO); 4) 10 microliter of enzyme/substrate mixture.
(§2) Compound 4 was analyzed for selectivity against a panel of other kinases at ProQinase using their commercially available radiometric kinase assay services and the methods described in Example 1.

AXL = biological target: T2, AXL (Homo sapiens, UniProt P30530)
T2 construct: either as full-length or enzymatically active fragments; purchased ProQinase GmbH (Reaction Biology)
Description: as §1, §2

BMX = biological target: T3, BMX (Homo sapiens, UniProt P51813)
T3 construct: either as full-length or enzymatically active fragments; purchased ProQinase GmbH (Reaction Biology)
Description: as §1, §2

CDK3/CycC = biological target: T4, CDK3/CycC (Homo sapiens, UniProt Q00526)
T4 construct: purchased ProQinase GmbH (Reaction Biology); host or cells: Sf9 insect cells or E. coli (not specified per kinase)
Description: as §1, §2

CDK4/CycD2 = biological target: T5, CDK4/CycD2 (Homo sapiens, UniProt P11802)
T5 construct: purchased ProQinase GmbH (Reaction Biology)
Description: as §1, §2

CDK7/CycH/MAT1 = biological target: T6, CDK7/CycH/MAT1 (Homo sapiens, UniProt P50613)
T6 construct: either as full-length or enzymatically active fragments; purchased ProQinase GmbH (Reaction Biology)
Description: as §1, §2

CK2alpha1 = biological target: T7, CK2alpha1 (Homo sapiens, UniProt P68400)
T7 construct: either as full-length or enzymatically active fragments; purchased ProQinase GmbH (Reaction Biology)
Description: as §1, §2

CSF1R = biological target: T8, CSF1R (Homo sapiens, UniProt P07333)
T8 construct: either as full-length or enzymatically active fragments; purchased ProQinase GmbH (Reaction Biology); host or cells: Sf9 insect cells or E. coli
Description: as §1, §2

EPHB3 = biological target: T9, EPHB3 (Homo sapiens, UniProt P54753)
T9 construct: either as full-length or enzymatically active fragments; purchased ProQinase GmbH (Reaction Biology)
Description: as §1, §2

ERK2 = biological target: T10, ERK2 (Homo sapiens, UniProt P28482)
T10 construct: either as full-length or enzymatically active fragments; purchased ProQinase GmbH (Reaction Biology); host or cells: Sf9 insect cells or E. coli (not specified per kinase)
T10 sequence (P28482 whole entry, the tested form may be a part): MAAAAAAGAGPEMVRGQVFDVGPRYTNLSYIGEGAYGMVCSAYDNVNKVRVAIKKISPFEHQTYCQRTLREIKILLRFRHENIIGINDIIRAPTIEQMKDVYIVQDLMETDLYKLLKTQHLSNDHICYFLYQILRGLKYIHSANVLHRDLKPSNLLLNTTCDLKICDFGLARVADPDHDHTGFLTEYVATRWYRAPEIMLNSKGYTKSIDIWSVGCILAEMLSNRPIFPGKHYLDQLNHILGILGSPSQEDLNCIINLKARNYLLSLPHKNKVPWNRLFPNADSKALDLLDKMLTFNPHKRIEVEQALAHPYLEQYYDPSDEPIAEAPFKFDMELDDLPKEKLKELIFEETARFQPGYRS
Description: as §1, §2

ERK5 = biological target: T11, ERK5 (Homo sapiens, UniProt Q13164)
T11 construct: either as full-length or enzymatically active fragments; purchased ProQinase GmbH (Reaction Biology)
T11 sequence (Q13164 whole entry, the tested form may be a part): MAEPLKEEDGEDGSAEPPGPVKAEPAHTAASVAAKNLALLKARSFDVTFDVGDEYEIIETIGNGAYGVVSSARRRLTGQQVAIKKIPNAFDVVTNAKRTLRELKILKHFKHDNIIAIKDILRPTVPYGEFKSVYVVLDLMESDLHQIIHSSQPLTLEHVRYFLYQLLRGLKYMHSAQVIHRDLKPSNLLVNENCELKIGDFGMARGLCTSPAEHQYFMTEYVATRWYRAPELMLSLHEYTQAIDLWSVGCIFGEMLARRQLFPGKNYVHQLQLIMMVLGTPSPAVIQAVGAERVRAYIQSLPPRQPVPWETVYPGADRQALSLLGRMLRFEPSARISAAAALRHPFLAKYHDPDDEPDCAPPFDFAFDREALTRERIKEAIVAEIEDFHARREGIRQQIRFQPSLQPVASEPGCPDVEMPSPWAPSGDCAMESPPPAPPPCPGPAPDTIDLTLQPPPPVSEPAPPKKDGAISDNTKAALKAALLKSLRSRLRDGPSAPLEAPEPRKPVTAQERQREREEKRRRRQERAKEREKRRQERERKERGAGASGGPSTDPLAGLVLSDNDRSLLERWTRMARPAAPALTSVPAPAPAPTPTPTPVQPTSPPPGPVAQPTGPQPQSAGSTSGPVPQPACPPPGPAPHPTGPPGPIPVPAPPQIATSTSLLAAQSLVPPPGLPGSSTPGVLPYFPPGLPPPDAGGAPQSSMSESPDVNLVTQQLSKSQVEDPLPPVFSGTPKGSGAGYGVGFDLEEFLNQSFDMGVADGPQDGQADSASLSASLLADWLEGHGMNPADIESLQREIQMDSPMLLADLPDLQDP
Description: as §1, §2

ERK7 = biological target: T12, ERK7 (Homo sapiens, UniProt Q8TD08)
T12 construct: either as full-length or enzymatically active fragments; purchased ProQinase GmbH (Reaction Biology)
Description: as §1, §2

JAK1 = biological target: T13, JAK1 (Homo sapiens, UniProt P23458)
T13 construct: purchased ProQinase GmbH (Reaction Biology)
Description: as §1, §2

LRRK2 = biological target: T14, LRRK2 (Homo sapiens, UniProt Q5S007)
T14 construct: either as full-length or enzymatically active fragments; purchased ProQinase GmbH (Reaction Biology); host or cells: Sf9 insect cells or E. coli
T14 sequence (Q5S007 whole entry, the tested form may be a part): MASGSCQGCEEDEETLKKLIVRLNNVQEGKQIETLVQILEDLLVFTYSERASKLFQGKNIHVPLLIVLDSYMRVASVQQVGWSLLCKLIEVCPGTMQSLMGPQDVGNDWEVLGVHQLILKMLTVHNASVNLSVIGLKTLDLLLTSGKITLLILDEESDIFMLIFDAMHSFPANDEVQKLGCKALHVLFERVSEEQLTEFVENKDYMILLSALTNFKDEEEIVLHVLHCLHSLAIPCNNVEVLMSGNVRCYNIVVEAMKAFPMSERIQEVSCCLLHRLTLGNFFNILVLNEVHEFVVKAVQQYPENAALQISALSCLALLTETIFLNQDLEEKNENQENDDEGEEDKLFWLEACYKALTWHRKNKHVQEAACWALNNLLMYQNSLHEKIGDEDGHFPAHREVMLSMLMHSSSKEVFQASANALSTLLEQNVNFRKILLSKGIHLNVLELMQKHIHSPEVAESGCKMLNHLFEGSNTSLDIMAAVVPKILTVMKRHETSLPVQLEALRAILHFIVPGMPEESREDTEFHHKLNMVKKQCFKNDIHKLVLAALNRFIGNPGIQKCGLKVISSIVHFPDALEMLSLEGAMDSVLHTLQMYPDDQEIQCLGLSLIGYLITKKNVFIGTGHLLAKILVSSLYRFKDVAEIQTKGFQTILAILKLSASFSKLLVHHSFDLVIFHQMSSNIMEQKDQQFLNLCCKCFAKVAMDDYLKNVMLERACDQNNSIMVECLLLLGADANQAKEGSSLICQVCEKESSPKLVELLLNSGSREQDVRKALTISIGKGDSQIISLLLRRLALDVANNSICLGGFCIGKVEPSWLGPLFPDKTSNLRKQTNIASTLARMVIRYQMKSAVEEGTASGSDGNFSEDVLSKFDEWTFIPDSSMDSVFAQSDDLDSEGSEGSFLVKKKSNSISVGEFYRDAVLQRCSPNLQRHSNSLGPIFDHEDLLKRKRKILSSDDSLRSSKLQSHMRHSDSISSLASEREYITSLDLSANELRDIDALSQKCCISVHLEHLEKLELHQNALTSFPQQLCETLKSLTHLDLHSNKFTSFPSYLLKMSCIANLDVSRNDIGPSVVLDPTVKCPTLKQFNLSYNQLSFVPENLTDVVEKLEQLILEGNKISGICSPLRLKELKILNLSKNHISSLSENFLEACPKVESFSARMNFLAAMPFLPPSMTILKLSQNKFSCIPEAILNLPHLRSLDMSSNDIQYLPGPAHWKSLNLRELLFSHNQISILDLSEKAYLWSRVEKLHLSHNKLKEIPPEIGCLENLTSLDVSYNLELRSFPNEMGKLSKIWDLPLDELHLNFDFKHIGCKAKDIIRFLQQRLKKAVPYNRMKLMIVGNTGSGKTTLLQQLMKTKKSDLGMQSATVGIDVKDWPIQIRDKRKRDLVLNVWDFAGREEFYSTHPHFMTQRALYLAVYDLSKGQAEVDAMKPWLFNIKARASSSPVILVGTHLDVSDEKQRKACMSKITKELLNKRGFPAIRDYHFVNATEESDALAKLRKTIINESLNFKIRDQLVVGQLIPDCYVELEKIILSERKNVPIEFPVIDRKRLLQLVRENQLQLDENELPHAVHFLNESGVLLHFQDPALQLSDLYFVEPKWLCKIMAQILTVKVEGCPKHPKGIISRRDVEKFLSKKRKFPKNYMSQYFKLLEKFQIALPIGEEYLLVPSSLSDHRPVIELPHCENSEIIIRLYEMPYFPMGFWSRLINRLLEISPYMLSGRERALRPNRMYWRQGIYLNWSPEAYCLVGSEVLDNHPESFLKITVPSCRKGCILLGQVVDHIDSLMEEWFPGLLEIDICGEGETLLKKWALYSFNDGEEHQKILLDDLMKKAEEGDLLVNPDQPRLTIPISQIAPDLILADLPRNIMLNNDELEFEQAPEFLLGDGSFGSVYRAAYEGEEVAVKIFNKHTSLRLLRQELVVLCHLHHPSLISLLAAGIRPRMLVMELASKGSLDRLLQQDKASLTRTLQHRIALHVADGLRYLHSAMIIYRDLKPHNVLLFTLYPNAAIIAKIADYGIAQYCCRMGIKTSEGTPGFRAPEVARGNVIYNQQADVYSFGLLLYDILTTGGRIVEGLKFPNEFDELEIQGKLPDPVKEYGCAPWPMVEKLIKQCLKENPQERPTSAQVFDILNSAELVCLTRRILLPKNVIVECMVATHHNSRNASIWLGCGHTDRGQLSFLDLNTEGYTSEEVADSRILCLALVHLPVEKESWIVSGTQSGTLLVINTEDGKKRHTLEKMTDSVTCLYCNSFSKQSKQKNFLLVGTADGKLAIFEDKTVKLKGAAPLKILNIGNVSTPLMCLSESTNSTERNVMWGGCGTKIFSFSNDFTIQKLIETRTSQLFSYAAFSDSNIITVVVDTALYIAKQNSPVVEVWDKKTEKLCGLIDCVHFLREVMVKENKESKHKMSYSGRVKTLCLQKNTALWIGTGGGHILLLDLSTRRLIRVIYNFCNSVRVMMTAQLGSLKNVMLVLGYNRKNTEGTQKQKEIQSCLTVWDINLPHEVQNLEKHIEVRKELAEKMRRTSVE
Description: as §1, §2

LTK = biological target: T15, LTK (Homo sapiens, UniProt P29376)
T15 construct: purchased ProQinase GmbH (Reaction Biology); host or cells: Sf9 insect cells or E. coli (not specified per kinase)
Description: as §1, §2

MARK1 = biological target: T16, MARK1 (Homo sapiens, UniProt Q9P0L2)
T16 construct: purchased ProQinase GmbH (Reaction Biology)
Description: as §1, §2

MEK1 = biological target: T17, MEK1 (Homo sapiens, UniProt Q02750)
T17 construct: either as full-length or enzymatically active fragments; purchased ProQinase GmbH (Reaction Biology); host or cells: Sf9 insect cells or E. coli
Description: as §1, §2

MUSK = biological target: T18, MUSK (Homo sapiens, UniProt O15146)
T18 construct: either as full-length or enzymatically active fragments; purchased ProQinase GmbH (Reaction Biology)
Description: as §1, §2

PASK = biological target: T19, PASK (Homo sapiens, UniProt Q96RG2)
T19 construct: either as full-length or enzymatically active fragments; purchased ProQinase GmbH (Reaction Biology)
Description: as §1, §2

PKCgamma = biological target: T20, PKCgamma (Homo sapiens, UniProt P05129)
T20 construct: either as full-length or enzymatically active fragments; purchased ProQinase GmbH (Reaction Biology)
Description: as §1, §2

RPS6KA2 = biological target: T21, RPS6KA2 (Homo sapiens, UniProt Q15349)
T21 construct: either as full-length or enzymatically active fragments; purchased ProQinase GmbH (Reaction Biology); host or cells: Sf9 insect cells or E. coli
Description: as §1, §2

RPS6KA6 = biological target: T22, RPS6KA6 (Homo sapiens, UniProt Q9UK32)
T22 construct: purchased ProQinase GmbH (Reaction Biology)
Description: as §1, §2

S6Kbeta = biological target: T23, S6Kbeta (Homo sapiens, UniProt Q9UBS0)
T23 construct: purchased ProQinase GmbH (Reaction Biology); host or cells: Sf9 insect cells or E. coli (not specified per kinase)
Description: as §1, §2

SIK2 = biological target: T24, SIK2 (Homo sapiens, UniProt Q9H0K1)
T24 construct: either as full-length or enzymatically active fragments; purchased ProQinase GmbH (Reaction Biology)
Description: as §1, §2

STK17A = biological target: T25, STK17A (Homo sapiens, UniProt Q9UEE5)
T25 construct: either as full-length or enzymatically active fragments; purchased ProQinase GmbH (Reaction Biology)
Description: as §1, §2

STK33 = biological target: T26, STK33 (Homo sapiens, UniProt Q9BYT3)
T26 construct: either as full-length or enzymatically active fragments; purchased ProQinase GmbH (Reaction Biology)
T26 sequence (Q9BYT3 whole entry, the tested form may be a part): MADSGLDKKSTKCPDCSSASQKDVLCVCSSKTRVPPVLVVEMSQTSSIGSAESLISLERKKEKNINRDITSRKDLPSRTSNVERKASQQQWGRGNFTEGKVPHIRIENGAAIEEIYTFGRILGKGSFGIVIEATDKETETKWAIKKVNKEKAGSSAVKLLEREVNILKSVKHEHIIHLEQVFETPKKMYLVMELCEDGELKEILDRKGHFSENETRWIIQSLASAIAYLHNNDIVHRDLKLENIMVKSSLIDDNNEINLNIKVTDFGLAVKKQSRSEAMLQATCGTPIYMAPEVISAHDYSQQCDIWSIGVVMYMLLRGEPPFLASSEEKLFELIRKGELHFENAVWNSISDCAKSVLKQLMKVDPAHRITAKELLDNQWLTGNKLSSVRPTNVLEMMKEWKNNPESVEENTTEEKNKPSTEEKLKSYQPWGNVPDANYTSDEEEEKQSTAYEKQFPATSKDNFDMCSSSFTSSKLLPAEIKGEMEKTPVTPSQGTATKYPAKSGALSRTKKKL
Description: as §1, §2

SYK = biological target: T27, SYK (Homo sapiens, UniProt P43405)
T27 construct: either as full-length or enzymatically active fragments; purchased ProQinase GmbH (Reaction Biology)
Description: as §1, §2

TYRO3 = biological target: T28, TYRO3 (Homo sapiens, UniProt Q06418)
T28 construct: either as full-length or enzymatically active fragments; purchased ProQinase GmbH (Reaction Biology)
T28 sequence (Q06418 41-890): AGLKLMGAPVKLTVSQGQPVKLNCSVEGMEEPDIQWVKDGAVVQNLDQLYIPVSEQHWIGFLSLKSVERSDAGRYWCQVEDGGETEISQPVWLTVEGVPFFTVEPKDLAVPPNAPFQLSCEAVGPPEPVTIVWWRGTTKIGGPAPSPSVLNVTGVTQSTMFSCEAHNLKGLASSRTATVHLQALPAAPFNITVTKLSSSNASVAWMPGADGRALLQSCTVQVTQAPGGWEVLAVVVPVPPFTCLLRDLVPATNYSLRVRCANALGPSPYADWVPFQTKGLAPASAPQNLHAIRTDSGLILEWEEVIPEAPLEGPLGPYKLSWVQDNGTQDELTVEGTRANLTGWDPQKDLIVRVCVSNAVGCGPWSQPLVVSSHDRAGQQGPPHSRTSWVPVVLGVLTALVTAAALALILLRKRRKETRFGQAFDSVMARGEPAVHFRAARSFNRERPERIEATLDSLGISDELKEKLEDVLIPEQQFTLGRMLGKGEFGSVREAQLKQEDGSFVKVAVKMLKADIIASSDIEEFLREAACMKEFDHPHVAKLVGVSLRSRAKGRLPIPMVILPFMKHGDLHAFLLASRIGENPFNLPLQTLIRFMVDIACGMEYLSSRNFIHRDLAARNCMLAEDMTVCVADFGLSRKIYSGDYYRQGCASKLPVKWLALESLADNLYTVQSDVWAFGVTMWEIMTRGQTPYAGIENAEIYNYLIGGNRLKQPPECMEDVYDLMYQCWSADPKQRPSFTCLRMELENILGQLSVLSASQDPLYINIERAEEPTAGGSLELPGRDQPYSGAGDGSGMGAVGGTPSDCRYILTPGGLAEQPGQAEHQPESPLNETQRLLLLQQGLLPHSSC
Description: as §1, §2

VEGFR3 = biological target: T29, VEGFR3 (Homo sapiens, UniProt P35916)
T29 construct: either as full-length or enzymatically active fragments; purchased ProQinase GmbH (Reaction Biology)
Description: as §1, §2

WNK1 = biological target: T30, WNK1 (Homo sapiens, UniProt Q9H4A3)
T30 construct: either as full-length or enzymatically active fragments; purchased ProQinase GmbH (Reaction Biology)
Description: as §1, §2

## C=CC(=O)Nc1ccc(C(=O)N2CC[C@@H](Nc3ncc(C#N)cn3)C2)cc1 [Compound 4, (R)-N-(4-(3-((5-cyanopyrimidin-2-yl)amino)pyrrolidine-1-carbonyl)phenyl)acrylamide]
AKT3
  inhibition at 1 µM: -2%
AXL
  inhibition at 1 µM: 3%
BMX
  inhibition at 1 µM: -4%
CDK3/CycC
  inhibition at 1 µM: 1%
CDK4/CycD2
  inhibition at 1 µM: 0%
CDK7/CycH/MAT1
  inhibition at 1 µM: 33%
CK2alpha1
  inhibition at 1 µM: -4%
CSF1R
  inhibition at 1 µM: 14%
EPHB3
  inhibition at 1 µM: 5%
ERK2
  inhibition at 1 µM: 9%
ERK5
  inhibition at 1 µM: 6%
ERK7
  inhibition at 1 µM: 17%
JAK1
  inhibition at 1 µM: -1%
LRRK2
  inhibition at 1 µM: -14%
LTK
  inhibition at 1 µM: 1%
MARK1
  inhibition at 1 µM: 0%
MEK1
  inhibition at 1 µM: 13%
MUSK
  inhibition at 1 µM: 7%
PASK
  inhibition at 1 µM: -5%
PKCgamma
  inhibition at 1 µM: -9%
RPS6KA2
  inhibition at 1 µM: 12%
RPS6KA6
  inhibition at 1 µM: -3%
S6Kbeta
  inhibition at 1 µM: 1%
SIK2
  inhibition at 1 µM: -4%
STK17A
  inhibition at 1 µM: -4%
STK33
  inhibition at 1 µM: 5%
SYK
  inhibition at 1 µM: 2%
TYRO3
  inhibition at 1 µM: -3%
VEGFR3
  inhibition at 1 µM: -5%
WNK1
  inhibition at 1 µM: 17%
